The test system of one data set is Tumor cells PC-12. The data set is described as follows: Tumor cell growth inhibition (MTT), PC-12. The format is cell-based. As to conditions: PC-12 cells, culturing for 3 days with compound, absorbance at 540 nm; for GI50: Rattus norvegicus, PC-12, 72 h, read-out: GI50, concentration of the compound which showed 50% inhibition on cell growth as compared with a control group, PC-12. How it is done:
(§1) Tumor cells PC-12 and PC-6, which had been serially cultured in RPMI 1640 containing 10% fetal bovine serum, 2 mM L-glutamine, and 100 μg/ml of kanamycin sulfate, were inoculated to a 96-well microplate (1.0×10^3 cells-PC-12/150 μl/well; 5.0×10^3 cells-PC-6/150 μl/well). After 24-hour incuvation, 50 μl of a preparation containing each of the compounds of Examples 5 to 8 and Example 13 (hereinafter described) in a varied concentration was added to each well, followed by culturing for 3 days. A 5 mg/ml solution of 3-(4,5-dimethylthiazol-2-yl)-2,5-diphenyl-2H-tetrazolium bromide (MTT) was added in an amount of 20 μl per well. Four hours later, the culture broth was removed, 150 μl/well of dimethyl sulfoxide was added to the residue, and the absorbance was measured at 540 nm.

The subject of another data set is Tumor cells PC-6. The data set is described as follows: Tumor cell growth inhibition (MTT), PC-6. The format is cell-based. As to conditions: Homo sapiens, 72 h, PC-6 cells, culturing for 3 days with compound, absorbance at 540 nm, read-out: GI50, concentration of the compound which showed 50% inhibition on cell growth as compared with a control group, PC-6. On the procedure: as §1

Values after ≈ are worked out from the molar mass of the structure shown. Where a name gives a salt, the structure may show the parent alone.

As usually defined, the melting point is the temperature, or range, at which the solid turns liquid.

Take `Cc1c(/C=C/CN2CCN(c3cc(F)cc(F)c3)CC2)cnn1-c1ncccc1I` (as salt: hydrochloride): the melting point was 212 to 216 °C (dec.). Consider `Cc1c(/C=C/CN2CCN3c4cc(F)ccc4OCC3C2)cnn1-c1cc(N(C)C)nc(N)n1` (racemic) [Example 71, (+/−)-3-[3-[1-(2-Amino-6-dimethylamino-4-pyrimidinyl)-5-methyl-4-pyrazolyl]-2-trans-propen-1-yl]-9-fluoro-2,3,4,4a,5,6-hexahydro-1H-pyrazino[2,1-c]-1,4-benzoxazine Hydrochloride], for which, in the data set on Tumor cells PC-12, the GI50 came out at 0.00537 µg/mL. Still for that read-out and setting: with `Cc1c(/C=C/CN2CCN3c4ccccc4CC3C2)cnn1-c1cc(N(C)C)nc(N)n1` (racemic) [Example 72, (+/−)-2-[3-[1-(2-Amino-6-dimethylamino-4-pyrimidinyl)-5-methyl-4-pyrazolyl]-2-trans-propen-1-yl]-1,2,3,4,10,10a-hexahydropyrazino[1,2-a]indole Hydrochloride] the figure was 0.035 µg/mL. As for `Cc1c(/C=C/CN2CCN3c4ccccc4CCC3C2)cnn1-c1cc(N(C)C)nc(N)n1` (single isomer, unassigned; isomer a) [Example 67, 3-[3-[1-(2-Amino-6-dimethylamino-4-pyrimidinyl)-5-methyl-4-pyrazolyl]-2-trans-propen-1-yl]-2,3,4,4a,5,6-hexahydro-1H-pyrazino[1,2-a]quinoline Hydrochloride (Isomer A)], the “GI50, concentration of the compound which showed 50% inhibition on cell growth as compared with a control group, PC-12” value with Tumor cells PC-12 was 0.0662 µg/mL. For `Cc1c(/C=C/CN2CCN3c4cc(F)ccc4CCC3C2)cnn1-c1cc(N(C)C)nc(N)n1.Cl` (single isomer, unassigned; isomer a) [Example 69, 3-[3-[1-(2-Amino-6-dimethylamino-4-pyrimidinyl)-5-methyl-4-pyrazolyl]-2-trans-propen-1-yl]-9-fluoro-2,3,4,4a,5,6-hexahydro-1H-pyrazin[1,2-a]quinoline Hydrochloride (Isomer A)], the GI50 in the data set with Tumor cells PC-12 is 0.0246 µg/mL.

In the case of `Cc1c(/C=C/CN2CCN3c4ccccc4CCC3C2)cnn1-c1cc(N(C)C)nc(N)n1` (single isomer, unassigned; isomer b) [Example 68, 3-[3-[1-(2-Amino-6-dimethylamino-4-pyrimidinyl)-5-methyl-4-pyrazolyl]-2-trans-propen-1-yl]-2,3,4,4a,5,6-hexahydro-1H-pyrazino[1,2-a]quinoline Hydrochloride (Isomer B)], the “GI50, concentration of the compound which showed 50% inhibition on cell growth as compared with a control group, PC-12” value with Tumor cells PC-12 amounted to 0.00916 µg/mL. For `Cc1c(/C=C/CN2CCN3c4cc(F)ccc4CCC3C2)cnn1-c1cc(N(C)C)nc(N)n1` (single isomer, unassigned; isomer b) [Example 70, 3-[3-(1-(2-Amino-6-dimethylamino-4-pyrimidin-yl)-5-methyl-4-pyrazolyl)-2-trans-propen-1-yl]-9-fluoro-2,3,4,4a,5,6-hexahydro-1H-pyrazino[1,2-a]quinoline (Isomer B)], in the data set with Tumor cells PC-12, the GI50 stood at 0.0101 µg/mL (≈ 0.0218 µM). Regarding `Cc1c(/C=C/CN2CCN(c3cc(F)cc(Cl)c3)CC2)cnn1-c1ncccc1Cl.Cl` [Example 5, 3-[4-(3-Chloro-5-fluorophenyl)-1-piperazinyl]-1-[1-(3-chloro-2-pyridyl)-5-methyl-4-pyrazolyl]-1-trans-propene Hydrochloride], the GI50 in the data set on Tumor cells PC-6 worked out at 0.0106 µg/mL; in the data set on Tumor cells PC-12, 0.0913 µg/mL. As for `Cc1c(/C=C/CN2CCN(c3cc(F)cc(F)c3)CC2)cnn1-c1ncccc1Cl.Cl` [Example 6, 1-[1-(3-Chloro-2-pyridyl)-5-methyl-4-pyrazolyl]-3-[4-(3,5-difluorophenyl)-1-piperazinyl]-1-trans-propene Hydrochloride], the GI50 in the data set on Tumor cells PC-6 was 0.00879 µg/mL; in the data set with Tumor cells PC-12, 0.0347 µg/mL. For `Cc1c(/C=C/CN2CCN(c3cc(Cl)cc(Cl)c3)CC2)cnn1-c1ncccc1Cl.Cl` [Example 7] the same measures were 0.0382 µg/mL and 0.237 µg/mL.

`Cc1c(/C=C/CN2CCN(c3cccc(Cl)c3)CC2)cnn1-c1ncccc1Cl.Cl` [Example 8, 3-[4-(3-Chlorophenyl)-1-piperazinyl]-1-[1-(3-chloro-2-pyridyl)-5-methyl-4-pyrazolyl]-1-propene Hydrochloride]: the GI50 with Tumor cells PC-6 turned out to be 0.0373 µg/mL; in the data set with Tumor cells PC-12, 0.21 µg/mL. For `COc1cccnc1-n1ncc(/C=C/CN2CCN(c3cc(Cl)cc(Cl)c3)CC2)c1C.Cl` [Example 13, 3-[4-(3,5-Dichlorophenyl)-1-piperazinyl]-1-[1-(3-methoxy-2-pyridyl)-5-methyl-4-pyrazolyl]-1-trans-propene Hydrochloride], the GI50 with Tumor cells PC-6 was 0.00493 µg/mL; in the data set with Tumor cells PC-12, 0.0383 µg/mL. Regarding `Cc1c(/C=C/CN2CCN(c3cc(F)cc(F)c3)CC2)cnn1-c1cc(N)nc(N)n1.Cl` [Example 58, 1-[1-(2,6-Diamino-4-pyrimidinyl)-5-methyl-4-pyrazolyl]-3-[4-(3,5-difluorophenyl)-1-piperazinyl]-1-trans-propene Hydrochloride], the GI50 in the data set on Tumor cells PC-12 was 0.0134 µg/mL. Same read-out and setting: with `CNc1cc(-n2ncc(/C=C/CN3CCN(c4cc(F)cc(F)c4)CC3)c2C)nc(N)n1.Cl` [Example 59, 1-[1-(2-Amino-6-methylamino-4-pyrimidinyl)-5-methyl-4-pyrazolyl]-3-[4-(3,5-difluorophenyl)-1-piperazinyl]-1-trans-propene Hydrochloride] the figure was 0.011 µg/mL. On the same count and under the same terms, with `Cc1c(/C=C/CN2CCN(c3cc(F)cc(F)c3)CC2)cnn1-c1nc(N)nc(N(C)C)n1.Cl` [Example 60, 1-[1-(2-Amino-4-dimethylamino-1,3,5-triazin-6-yl)-5-methyl-4-pyrazolyl]-3-[4-(3,5-difluorophenyl)-1-piperazinyl]-1-trans-propene Hydrochloride] the figure was 0.0207 µg/mL.

(Values after patent US6552018B1, “Pyrazole derivatives” (Daiichi Pharmaceutical Co., Ltd., priority 1997, dated 2003).)
